Q: For `CCCc1nc2c(N)nc3cc(-c4ccccc4)ccc3c2n1CCCONC(=O)C(C)C` [Example 138, N-[3-(4-Amino-7-phenyl-2-propyl-1H-imidazo[4,5-c]quinolin-1-yl)propoxy]-2-methylpropanamide], which melting point is on record?
A: 169 to 171 °C

Q: For `CCCc1nc2c(N)nc(C)c(C)c2n1CCCONC(C)c1ccccc1` (centres unmarked) [Example 129, 6,7-Dimethyl-1-(3-{[(1-phenylethyl)amino]oxy}propyl)-2-propyl-1H-imidazo[4,5-c]pyridin-4-amine], which melting point is on record?
A: 125 to 127 °C

Q: Which melting point does the source give for `CCCCc1nc2c(N)nc3ccccc3c2n1CCCCONC(C)C` [Example 72, 2-Butyl-1-{4-[(isopropylamino)oxy]butyl}-1H-imidazo[4,5-c]quinolin-4-amine] here?
A: 115 to 117 °C

Q: For `CCCc1nc2c(N)nc3ccccc3c2n1CCCONC(C)C` [Example 130, 1-{3-[(Isopropylamino)oxy]propyl}-2-propyl-1H-imidazo[4,5-c]quinolin-4-amine], which melting point is on record?
A: 147 to 150 °C

Q: For `CCCc1nc2c(N)nc3ccccc3c2n1CCCON` [Example 1, 1-[3-(Aminooxy)propyl]-2-propyl-1H-imidazo[4,5-c]quinolin-4-amine], which melting point is on record?
A: 145 to 148 °C

Q: With `CCCc1nc2c(N)nc3ccccc3c2n1CCCONC(=O)C1CC1` [Example 2, N-[3-(4-Amino-2-propyl-1H-imidazo[4,5-c]quinolin-1-yl)propoxy]cyclopropanecarboxamide] as the compound, how does the melting point read?
A: 103 to 105 °C

Q: For `CCOCc1nc2c(N)nc3cc(-c4ccccc4)cnc3c2n1CCCONC(C)C` [Example 139, 2-(Ethoxymethyl)-1-{3-[(isopropylamino)oxy]propyl}-7-phenyl-1H-imidazo[4,5-c][1,5]naphthyridin-4-amine], which melting point is on record?
A: 142 to 144 °C

Q: Which melting point does the source give for `CCCc1nc2c(N)nc3cc(Br)ccc3c2n1CCCONC(=O)C(C)C` [Example 137, N-[3-(4-Amino-7-bromo-2-propyl-1H-imidazo[4,5-c]quinolin-1-yl)propoxy]-2-methylpropanamide] here?
A: 176 to 178 °C
